Values quoted from earlier work, collected in US7202251B2, “Bicyclic anilide spirohydantoin CGRP receptor antagonists” (Merck & Co., Inc., priority 2003, dated 2007).
Ends that are not written are not given here.

Tests used:
facial blood flow [1] = conditions: rat, trigeminal ganglion stimulation
[2] = tested on: middle meningeal artery diameter; conditions: rats, electrical stimulation of the dura mater, prior administration
facial blood flow [3] = conditions: marmoset, electrical stimulation of the trigeminal ganglion

Row | Compound | effect on increased facial blood flow (facial blood flow [1]) | effect on increase of middle meningeal artery diameter [2] | effect on increase in facial blood flow (facial blood flow [3])
1 | CGRP(8-37): a peptide CGRP antagonist (VTHRLAGLLSRSGGVVKNNFVPTNVGSKAF; ends and bridges not checked; UniProt P06881 90-119, looked up, fragment) | inhibited | blocked | 
2 | NCCCC[C@H](NC(=O)[C@@H](Cc1cc(Br)c(O)c(Br)c1)NC(=O)N1CCC(N2Cc3ccccc3NC2=O)CC1)C(=O)N1CCN(c2ccncc2)CC1 [BIBN4096BS] |  |  | blocked
